Like-named read-outs stand apart in the source and are kept apart here.
What was measured:
Format in all cases: biochemical
[1] = molecular target: T1, Human recombinant PDE10A (hPDE10A) (Homo sapiens, UniProt Q9Y233); experiment: In vitro assay PDE10A, human clone (SPA, 3H-cAMP hydrolysis); settings: human clone (h), default; for Emax: read-out: hPDE10A2 Emax; for IC50: read-out: hPDE10A2 pIC50 (converted)
T1 construct: His tag (inferred from metal chelate purification); made in house; host or cells: Sf9 insect cells (baculovirus)
T1 sequence (Q9Y233 267-1055): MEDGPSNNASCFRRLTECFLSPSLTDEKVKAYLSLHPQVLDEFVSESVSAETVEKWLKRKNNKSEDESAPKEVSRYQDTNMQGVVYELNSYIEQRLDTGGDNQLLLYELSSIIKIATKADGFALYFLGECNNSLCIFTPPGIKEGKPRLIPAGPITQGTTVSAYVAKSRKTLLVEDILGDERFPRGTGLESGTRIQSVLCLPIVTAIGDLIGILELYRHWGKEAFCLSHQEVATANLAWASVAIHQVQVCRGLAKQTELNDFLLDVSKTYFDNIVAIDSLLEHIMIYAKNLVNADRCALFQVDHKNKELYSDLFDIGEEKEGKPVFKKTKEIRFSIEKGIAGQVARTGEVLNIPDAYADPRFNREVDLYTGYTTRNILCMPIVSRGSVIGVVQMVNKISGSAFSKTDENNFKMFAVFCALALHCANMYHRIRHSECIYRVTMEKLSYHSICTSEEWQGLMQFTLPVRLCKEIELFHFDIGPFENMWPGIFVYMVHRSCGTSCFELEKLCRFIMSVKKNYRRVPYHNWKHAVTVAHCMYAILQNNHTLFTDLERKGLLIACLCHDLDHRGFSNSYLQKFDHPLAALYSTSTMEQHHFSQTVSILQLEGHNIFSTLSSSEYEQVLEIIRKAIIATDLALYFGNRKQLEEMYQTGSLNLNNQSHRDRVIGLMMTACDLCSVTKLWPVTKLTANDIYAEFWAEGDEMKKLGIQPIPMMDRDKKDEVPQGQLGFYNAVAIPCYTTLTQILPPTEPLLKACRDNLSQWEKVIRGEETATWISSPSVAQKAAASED
Description: Rat recombinant PDE10A (rPDE10A2) was expressed in Sf9 cells using a recombinant rPDE10A baculovirus construct. […] Tested compounds were dissolved and diluted in 100% DMSO to a concentration 100 fold of the final concentration in the assay. Human recombinant PDE10A ([…]) was expressed in Sf9 cells using a recombinant hPDE10A baculovirus that was made and amplified in house. […] Compound dilutions (0.4 μl) were added in 384 well plates to 20 μl of incubation buffer (50 mM Tris pH 7.8, 8.3 mM MgCl2, 1.7 mM EGTA). 10 μl of rPDE10A or hPDE10A enzyme in incubation buffer was added and the reaction was started by addition of 10 μl substrate to a final concentration of 60 nM cAMP and 0.008 μCi ^3H-cAMP. The reaction was incubated for 60 minutes at room temperature. […] After sedimentation of the beads during 30 minutes the radioactivity was measured in a Perkin Elmer Topcount scintillation counter and results were expressed as cpm. For blanc values the enzyme was omitted from the reaction and replaced by incubation buffer. Control values were obtained by addition of a final concentration of 1% DMSO instead of compound.

[2] = molecular target: T2, Human recombinant PDE3A (hPDE3A) (Homo sapiens, UniProt Q14432); experiment: In vitro assay PDE3A (SPA, 3H-cAMP hydrolysis); settings: for IC50: hPDE3B pIC50, read-out: pIC50 (converted); for Emax: read-out: hPDE3B Emax, read-out: Emax;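 for all read-outs here: the method names PDE3A and the table heading PDE3B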
T2 construct: purchased Scottish Biomedical; host or cells: Sf9 insect cells
T2 sequence (Q14432 whole entry): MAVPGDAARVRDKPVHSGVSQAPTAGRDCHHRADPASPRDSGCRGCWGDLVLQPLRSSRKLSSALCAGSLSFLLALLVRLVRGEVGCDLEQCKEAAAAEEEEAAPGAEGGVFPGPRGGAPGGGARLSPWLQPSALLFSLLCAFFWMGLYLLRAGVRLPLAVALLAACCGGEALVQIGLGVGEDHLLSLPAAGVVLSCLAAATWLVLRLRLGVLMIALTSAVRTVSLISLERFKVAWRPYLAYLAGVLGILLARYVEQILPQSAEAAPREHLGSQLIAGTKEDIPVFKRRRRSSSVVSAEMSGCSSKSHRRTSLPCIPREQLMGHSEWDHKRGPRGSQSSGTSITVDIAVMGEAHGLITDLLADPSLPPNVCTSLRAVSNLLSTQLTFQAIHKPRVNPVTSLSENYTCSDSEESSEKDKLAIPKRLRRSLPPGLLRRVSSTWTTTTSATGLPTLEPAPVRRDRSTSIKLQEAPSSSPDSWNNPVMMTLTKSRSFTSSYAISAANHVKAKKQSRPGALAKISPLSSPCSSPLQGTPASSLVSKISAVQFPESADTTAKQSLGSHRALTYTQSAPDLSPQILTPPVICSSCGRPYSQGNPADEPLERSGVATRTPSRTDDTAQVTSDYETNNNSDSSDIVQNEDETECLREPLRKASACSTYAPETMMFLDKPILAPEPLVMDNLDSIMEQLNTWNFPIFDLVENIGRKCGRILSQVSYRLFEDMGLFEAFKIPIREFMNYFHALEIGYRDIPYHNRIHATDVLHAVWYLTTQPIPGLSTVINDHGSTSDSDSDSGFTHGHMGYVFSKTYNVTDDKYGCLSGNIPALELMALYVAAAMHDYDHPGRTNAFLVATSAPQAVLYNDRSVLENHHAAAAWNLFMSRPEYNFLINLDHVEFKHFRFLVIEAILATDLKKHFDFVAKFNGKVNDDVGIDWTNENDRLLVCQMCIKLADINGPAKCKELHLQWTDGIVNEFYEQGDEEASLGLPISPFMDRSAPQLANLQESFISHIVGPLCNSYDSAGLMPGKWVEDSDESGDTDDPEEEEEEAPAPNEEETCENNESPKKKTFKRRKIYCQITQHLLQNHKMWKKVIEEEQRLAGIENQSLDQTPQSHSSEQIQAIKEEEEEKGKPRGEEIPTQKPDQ
Description: Human recombinant PDE3A (hPDE3A) was supplied as a partially purified insect cell lysate by Scottish Biomedical, it was cloned from human brain and expressed in Sf9 cells. Tested compounds were dissolved and diluted in 100% DMSO to a concentration 100 fold of the final concentration in the assay. Compound dilutions (0.4 μl) were added in 384 well plates to 20 μl of incubation buffer (50 mM Tris pH 7.8, 8.3 mM MgCl2, 1.7 mM EGTA). 10 μl of hPDE3A enzyme in incubation buffer was added and the reaction was started by addition of 10 μl substrate to a final concentration of 0.4 μM cAMP and 2.4 μCi/ml [^3H]-cAMP. The reaction was incubated for 60 min at room temperature. […] After sedimentation of the beads during 30 min the radioactivity was measured in a Perkin Elmer Topcount scintillation counter and results were expressed as cpm. For blanc values the enzyme was omitted from the reaction and replaced by incubation buffer. Control values were obtained by addition of a final concentration of 1% DMSO instead of compound.

[3] = molecular target: T3, Human recombinant PDE2A (hPDE2A) (Homo sapiens, UniProt O00408); experiment: In vitro assay PDE2A (SPA, 3H-cGMP hydrolysis); settings: for Emax: read-out: hPDE2A Emax; for IC50: read-out: hPDE2A pIC50 (converted)
T3 construct: His tag (inferred from metal chelate purification); made in house; host or cells: Sf9 insect cells (baculovirus)
T3 sequence (O00408 whole entry): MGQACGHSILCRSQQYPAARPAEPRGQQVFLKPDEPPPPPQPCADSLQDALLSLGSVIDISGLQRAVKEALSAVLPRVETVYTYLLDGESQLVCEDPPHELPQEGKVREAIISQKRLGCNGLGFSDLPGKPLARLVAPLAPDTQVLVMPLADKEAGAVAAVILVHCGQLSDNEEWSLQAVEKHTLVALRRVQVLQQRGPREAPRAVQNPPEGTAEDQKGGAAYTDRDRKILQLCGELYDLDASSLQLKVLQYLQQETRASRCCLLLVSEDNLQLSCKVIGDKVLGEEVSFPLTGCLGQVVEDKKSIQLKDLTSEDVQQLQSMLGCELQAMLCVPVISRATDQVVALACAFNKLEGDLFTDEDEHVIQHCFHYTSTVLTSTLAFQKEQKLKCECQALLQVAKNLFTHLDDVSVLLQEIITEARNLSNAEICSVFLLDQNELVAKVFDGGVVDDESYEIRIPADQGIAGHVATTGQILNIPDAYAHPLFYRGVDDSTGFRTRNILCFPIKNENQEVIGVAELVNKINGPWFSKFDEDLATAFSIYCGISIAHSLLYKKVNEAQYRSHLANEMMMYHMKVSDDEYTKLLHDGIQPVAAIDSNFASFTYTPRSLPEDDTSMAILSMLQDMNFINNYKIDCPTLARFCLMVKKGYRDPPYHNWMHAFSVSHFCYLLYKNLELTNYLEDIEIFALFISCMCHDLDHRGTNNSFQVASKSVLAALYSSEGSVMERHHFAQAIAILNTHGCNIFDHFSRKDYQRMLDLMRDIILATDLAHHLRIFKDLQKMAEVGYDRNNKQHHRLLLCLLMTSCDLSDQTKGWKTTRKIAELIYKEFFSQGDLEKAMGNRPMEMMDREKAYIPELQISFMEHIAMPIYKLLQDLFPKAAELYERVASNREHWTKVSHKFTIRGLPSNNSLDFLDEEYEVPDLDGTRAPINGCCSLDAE

[4] = human recombinant PDE2A, 10 μM cGMP substrate

Emax [1] [%] | IC50 [1] [nM] | IC50 [2] [nM] | Emax [2] [%] | Emax [3] [%] | IC50 [3] [nM] | IC50 [3, 4] [nM] | Emax ([3]; human recombinant PDE2A) [%] | Compound
99 | 3.98 | 389 | 97 | 101 | 0.209 | 0.209 | 101 | C[C@@H]1CCN(C(=O)c2ccc3nc(N)sc3c2)C[C@H]1c1cc(C(F)F)nc2ncnn12 [Compound 88]
100 | 16.2 | 269 | 99 | 101 | 0.661 | 0.661 | 101 | Cc1csc2ccc(C(=O)N3CC[C@@H](C)[C@H](c4cc(C(F)F)nc5ncnn45)C3)nc12 [Compound 100]
98 | 74.1 | 513 | 92 | 100 | 0.813 | 0.813 | 100 | C[C@@H]1CCN(C(=O)c2ccc3ncoc3c2)C[C@H]1c1cc(C(F)F)nc2ncnn12 [Compound 104]
99 | 77.6 | 61.7 | 101 | 100 | 1.74 | 1.74 | 100 | Cc1c(C(=O)N2CC[C@@H](C)[C@H](c3cc(C(F)F)nc4ncnn34)C2)sc2ccccc12 [Compound 119]
97 | 288 | > 10000 | 51 | 101 | 3.39 | 3.39 | 101 | C[C@@H]1CCN(C(=O)c2ccc(C(C)(C)C)o2)C[C@H]1c1cc(C(F)F)nc2ncnn12 [Compound 136]
77 | 2400 | 7940 | 58 | 97 | 33.1 | 33.1 | 97 | Cc1ccc(C(=O)N2CC[C@@H](C)[C@H](c3cc(C(F)F)nc4ncnn34)C2)c(C)n1 [Compound 143]
96 | 468 | 2400 | 86 | 100 | 34.7 | 34.7 | 100 | CC(C)Oc1cc(C(=O)N2CC[C@@H](C)[C@H](c3cc(C(F)F)nc4ncnn34)C2)cc(C(C)C)c1 [Compound 144]
93 | 646 | 2040 | 86 | 99 | 36.3 | 36.3 | 99 | Cc1c(C(=O)N2CC[C@@H](C)[C@H](c3cc(C(F)F)nc4ncnn34)C2)ccc2c1OCO2 [Compound 145]
76 | 3310 | 1660 | 85 | 100 | 37.2 | – | – | C[C@@H]1CCN(C(=O)c2cnc3ccccc3c2O)C[C@H]1c1cc(C(F)F)nc2ncnn12 [Compound 146]
90 | 871 | 2240 | 81 | 100 | 38 | 38 | 100 | Cc1csc(C(=O)N2CC[C@@H](C)[C@H](c3cc(C(F)F)nc4ncnn34)C2)c1Cl [Compound 147]

Second part, the compound before the results:

Compound | Emax [1] [%] | IC50 [1] [nM] | IC50 [2] [nM] | Emax [2] [%] | Emax [3] [%] | IC50 [3] [nM] | IC50 [3, 4] [nM] | Emax ([3]; human recombinant PDE2A) [%]
Cc1cc(C(=O)N2[C@H]3CC[C@H](c4cc(C(F)F)nc5ncnn45)[C@@H]2CC3)c(F)cn1 [Compound 86] | 40 | > 10000 | > 10000 | 34 | 100 | 50.1 | – | –
C[C@@H]1CCN(C(=O)c2cocn2)C[C@H]1c1cc(C(F)F)nc2ncnn12 [Compound 87] | 69 | 4570 | > 10000 | 11 | 98 | 214 | 214 | 98
Cc1coc2ccc(C(=O)N3CC[C@@H](C)[C@H](c4cc(C(F)F)nc5ncnn45)C3)cc12 [Compound 92] | 98 | 24.5 | 1320 | 88 | 100 | 0.398 | 0.398 | 100
C[C@@H]1CCN(C(=O)c2cc3ccc(C(F)(F)F)cc3[nH]2)C[C@H]1c1cc(C(F)F)nc2ncnn12 [Compound 94] | 97 | 11.7 | 105 | 99 | 101 | 0.501 | 0.501 | 101
C[C@@H]1CCN(C(=O)c2cc(-c3ccco3)nn2C)C[C@H]1c1cc(C(F)F)nc2ncnn12 [Compound 98] | 98 | 39.8 | 603 | 94 | 100 | 0.603 | 0.603 | 100
COc1cccc2cc(C(=O)N3CC[C@@H](C)[C@H](c4cc(C(F)F)nc5ncnn45)C3)oc12 [Compound 105] | 101 | 29.5 | 1350 | 90 | 101 | 0.871 | 0.871 | 101
C[C@@H]1CCN(C(=O)c2c[nH]c3ccc(F)cc23)C[C@H]1c1cc(C(F)F)nc2ncnn12 [Compound 112] | 99 | 47.9 | 1780 | 84 | 101 | 1 | 1 | 101
COc1cc(C(=O)N2CC[C@@H](C)[C@H](c3cc(C(F)F)nc4ncnn34)C2)cc(C2CC2)n1 [Compound 113] | 99 | 38 | 1120 | 88 | 99 | 1 | 1 | 99
C[C@@H]1CCN(C(=O)c2cc3ccccc3n2C)C[C@H]1c1cc(C(F)F)nc2ncnn12 [Compound 114] | 101 | 45.7 | 89.1 | 98 | 100 | 1.05 | 1.05 | 100
COc1c(F)cc(C(=O)N2CC[C@@H](C)[C@H](c3cc(C(F)F)nc4ncnn34)C2)cc1F [Compound 128] | 98 | 155 | 933 | 90 | 100 | 2.29 | 2.29 | 100
C[C@@H]1CCN(C(=O)c2ccc(F)c(C3CC3)c2)C[C@H]1c1cc(C(F)F)nc2ncnn12 [Compound 135] | 97 | 191 | 2630 | 81 | 100 | 3.31 | 3.31 | 100
Cc1c(C(=O)N2[C@H]3CC[C@@H]2[C@H](c2cc(C(F)F)nc4ncnn24)CC3)oc2ccccc12 [Compound 140] | 83 | 3090 | 8910 | 57 | 100 | 29.5 | 29.5 | 100
Cc1cc(C(=O)N2CC[C@@H](C)[C@H](c3cc(C(F)F)nc4ncnn34)C2)nc(C)n1 [Compound 141] | 81 | 2040 | > 10000 | 12 | 100 | 29.5 | 29.5 | 100
C[C@@H]1CCN(C(=O)c2ccncc2N)C[C@H]1c1cc(C(F)F)nc2ncnn12 [Compound 142] | 79 | 2570 | > 10000 | 35 | 100 | 30.2 | 30.2 | 100
C[C@@H]1CCN(C(=O)c2cccc(C(F)(F)F)c2F)C[C@H]1c1cc(C(F)F)nc2ncnn12 [Compound 148] | 89 | 912 | 5620 | 67 | 101 | 38.9 | 38.9 | 101
C[C@@H]1CCN(C(=O)c2c(F)cccc2F)C[C@H]1c1cc(C(F)F)nc2ncnn12 [Compound 149] | 83 | 1820 | 5130 | 66 | 99 | 38.9 | 38.9 | 99
